Data taken from publication PMC4096222 (Journal of Medicinal Chemistry, 2014).

Tests used:
[1] = system: A/PR/8/34 (A/H1N1); assay type: cell-based, influenza A virus
[2] = molecular target: A/M2 S31N (Influenza A virus, UniProt P0DOF5, S31N); assay type: cell-based, influenza A/Udorn/72; details: for A/M2 S31N inhibition by 100 μM for 2 min (mean ± SE): pH 5.5
[3] = molecular target: A/M2 V27A (Influenza A virus, UniProt P0DOF5, V27A); assay type: cell-based, influenza A/Udorn/72

Row | Structure (SMILES) | activity against A/PR/8/34 strain [1] | A/M2 S31N inhibition by 100 μM for 2 min (mean ± SE) [2] | also measured
1 | C1=CC2C1C1C=CC2C2CNCC12.Cl (stereo not shown) [compound 11, 4-Azatetracyclo[5.4.2.0^2,6.0^8.11]trideca-9,12-diene Hydrochloride] | strong activity | – | –
2 | CC12CC34CNCC35CC1(C)C(C)(C5)C2(C)C4.Cl (stereo not shown) [compound 18, 7,8,9,10-Tetramethyl-3-azapentacyclo[7.2.1.1^5,8.0^1,5.0^7,10]tridecane Hydrochloride] | strong activity | – | inhibition of S31N mutant ion channel [2]: lack of inhibitory potency
3 | C1=CC2C3CC3C1C1CN(C3CCNCC3)CC21.Cl (stereo not shown) [compound 8, 4-(4-Piperidinyl)-4-azatetracyclo[5.3.2.0^2,6.0^8.10]dodec-11-ene Dihydrochloride] | strong activity | – | –
4 | C1=CC2C3CNCC3C1C1CC21.Cl (stereo not shown) [compound 4, 4-Azatetracyclo[5.3.2.0^2,6.0^8.10]dodec-11-ene Hydrochloride] | – | 0% | –
5 | Cl.N=C(N)N1CC2C3C=CC(C4CC34)C2C1 (stereo not shown) [compound 5, 4-Amidino-4-azatetracyclo[5.3.2.0^2,6.0^8.10]dodec-11-ene Hydrochloride] | – | 0% | –
6 | Cl.N=C(N)N1CC2C3CCC(C4CCC43)C2C1 (stereo not shown) [compound 14, 4-Amidino-4-azatetracyclo[5.4.2.0^2,6.0^8.11]tridecane Hydrochloride] | – | – | activity against V27A M2 mutant channel [3]: fair activity
